The record followed here is patent US11427586B2, “1,2,4-oxadiazole derivatives as liver X receptor agonists” (NOVARTIS AG, priority 2019, dated 2022).

The test system of one experiment is SCD1. Briefly: Measurement of SCD1 expression in SZ95-SCD1-HiBit cells (HiBiT assay). The experiment is classed as cell-based. The note with it: Homo sapiens, 48 h; for pEC50: SCD1 protein production, luminescence, initial dilution 1:3 in DMSO, read-out: HiBit EC50. The text has this:
Measurement of SCD1 Expression in SZ95-SCD1-HiBit Cells
SCD1 expression levels in SZ95 cells were quantitated using the HiBiT system (Promega) in which a small peptide sequence (SmBiT) with a larger protein (LgBiT) reconstitutes luciferase activity and can generate a luminescent signal used for quantitation. SZ95-SCD1-HiBit cells were generated by editing the SCD1 gene of SZ95 cells resulting in the addition of an 8 amino acid linker sequence (gssggssg, SEQ ID NO:1) followed by an 11-amino acid SmBiT sequence (vsgwrlfkkis, SEQ ID NO:2) at the carboxy-terminus of the SCD1 protein. The gRNA targeting sequence used was […] (SEQ ID NO: 3) and the SCD1 insertion oligonucleotide encoding the SmBiT sequence was:
SZ95-SCD1-HiBit cells were seeded in 384-well cell culture white plates at a density of 3000 cells/30 μl. Water was added to edge wells to avoid evaporation. Cells were incubated in a humidified incubator with 5% CO2 at 37° C. overnight. Tested compounds were diluted at a ratio of 1:3 in DMSO using an Agilent BRAVO Automated Liquid Handling Platform and, after further serial dilutions, added to cells at final concentrations starting from 18 μM. 2-(3-(3-((2-chloro-3-(trifluoromethyl)benzyl)(2,2-diphenylethyl)amino)propoxy)phenyl)acetic acid was used as a reference compound in each plate. Cells in the assay plate were incubated in a humidified incubator with 5% CO2 at 37° C. for 48 h.
The assay plates were removed from the incubator and allowed to equilibrate to room temperature. Nano-Glo® HiBiT Detection Reagent (Promega; a mixture of Nano-Glo HiBiT Detection Buffer, Nano-Glo HiBiT Detection Substrate, and LgBiT protein, according to the manufacturer's instructions) was added into assay plates, at a volume equal to cell culture medium in each well. Plates were placed on an orbital shaker at a speed of 300-600 rpm for 10 min at room temperature, and read on an EnVision Plate Reader using luminescence detection with a 1 second read time.
The assay measures the increase in SCD1 protein production in vitro. Amax refers to the percent EC50 of the tested compound compared to a reference compound, 2-(3-(3-((2-chloro-3-(trifluoromethyl)benzyl)(2,2-diphenylethyl)amino)propoxy)phenyl)acetic acid.
(The HiBiT peptide binds its large partner to form an active luciferase.)

The next experiment relates to SZ95 sebocytes. The experiment can be described thus: Sentinel Lipid Assay (SLA), desaturation index in SZ95 sebocytes. The experiment is classed as cell-based. The note with it: Homo sapiens, 72 h; for pEC50: desaturation index, lowest dose used 4.6 nM, read-out: SLA EC50. As to the method: Sentinel Lipid Assay (SLA)
The sentinel lipid assay was used quantify the change in the global desaturation index in SZ95 sebocytes upon administration of certain LXR agonist compounds provided herein. The assay measures a smaller subset of lipid analytes in meibum (termed “sentinel lipids”) which would model the global changes the population of both saturated and desaturated lipids in the cells. In order to define this smaller subset of lipids, a complete lipid profile was recorded on dose response curves (eight levels from 4 nM to 10 uM) of Compounds 1-72. An elastic net regression model was applied separately to both the saturated and desaturated lipids to determine the minimum combination of coefficients and analytes, which could be used to adequately model the total population of lipids. The elastic net model was able to reduce the behavior of 425 lipids to 11 lipids and the correlation between the desaturation indices observed using the complete set of lipids with from the 11 sentinel lipids was 0.96.
A medium throughput assay was created using this reduced set of sentinel lipids. A single batch is defined as triplicate examples of three unique plates (i.e., a single batch of cells is used to create nine plates for LC-MSMS analysis). Lipids were extracted from the cells using a 1:1 mixture of methylene chloride/methanol containing 10 nM of deuterated standards of triglycerides, which are used as internal standards for quantitating the lipid abundance. The lipids were separated prior to mass spectrometric analysis using a five minute HPLC gradient. The abundance of the sentinel lipids and the internal standards are measured using multiple reaction monitor mode (MRM) on a triple quadrupole mass spectrometer. The data was transformed from total ion current to nmoles/10^6 cells, which are multiplied by the coefficients from the elastic net model to determine the effective desaturated and saturated content, and therein the desaturation index of the dosed cells. In order to compare compounds from multiple batches with one another, the measure raw desaturation index was normalized by dividing it by the desaturation index of the DMSO dosed cells, and all data was assessed as the fraction by which the compound increases the desaturation index above 1.
SZ95 (immortalized human sebaceous gland cells) cells were seeded in Greiner bio-one 96-well polypropylene plates that were pre-treated with 50 μg/mL Human Plasma Fibronectin (Thermo Fisher Scientific) at a density of 10^4 cells/135 μl. Cells were incubated in a humidified incubator with 5% CO2 at 37° C. overnight. Test compounds were diluted at a ratio of 1:3 and added to cells at final concentrations starting from 10 μM. 2-(3-(3-((2-chloro-3-(trifluoromethyl)benzyl)(2,2-diphenylethyl)amino)propoxy)phenyl)acetic acid was used as a positive control reference compound in each plate. Cells in the assay plate were incubated in a humidified incubator with 5% CO2 at 37° C. for 72 h.
Culture medium was removed from the cells and cells in culture plates were washed with ice cold phosphate buffered saline three times. Plates were heat sealed and stored in a −80° C. freezer prior to Sentinel lipid assay. The Amax value refers to the percent EC50 of the tested compound compared to a reference compound, 2-(3-(3-((2-chloro-3-(trifluoromethyl)benzyl)(2,2-diphenylethyl)amino)propoxy)phenyl)acetic acid.

The mark [1] stands for this setting: normalized Amax based on the reference compound Amax of 100%, read-out: HiBit Normalized Amax.
The mark [2] stands for this setting: SZ95-SCD1-HiBit cells, compared to reference compound, read-out: HiBit Amax.
The mark [3] stands for this setting: normalized Amax based on the reference compound Amax of 100%, read-out: SLA Normalized Amax.
[4] abbreviates: SZ95 cells, compared to reference compound, read-out: SLA Amax.

pEC50: −log10 of the molar value. Where two headings read alike, the source gives them in different places. Where only a bound is given, the exact number is not on record here.

The term pEC50 denotes the negative decadic logarithm of the EC50, by convention in mol/L. For `CC(C)CS(=O)(=O)c1ccccc1Oc1ccc(-c2noc(CN3C(=O)N(CCN4CCOCC4)C4(CCN(C)CC4)C3=O)n2)cc1C(F)(F)F` [Compound 10, 3-((3-(4-(2-(isobutylsulfonyl)phenoxy)-3-(trifluoromethyl)phenyl)-1,2,4-oxadiazol-5-yl)methyl)-8-methyl-1-(2-morpholinoethyl)-1,3,8-triazaspiro[4.5]decane-2,4-dione], the Emax turned out to be 111% in the experiment with SCD1 (setting [1]), 106% in the experiment with SCD1 (setting [2]), 129% in the experiment on SZ95 sebocytes (setting [3]) and 124% with SZ95 sebocytes (setting [4]). The pEC50 is 10.10 with SCD1 (SZ95-SCD1-HiBit cells) and ≥ 8.34 in the experiment on SZ95 sebocytes (SZ95 cells).

Take `CC(C)N(C)S(=O)(=O)c1ccccc1Oc1ccc(-c2noc(CN3C(=O)N(CCN4CCOCC4)C4(CCN(C5CCC5)CC4)C3=O)n2)cc1C(F)(F)F` [Compound 11, 2-(4-(5-((8-cyclobutyl-1-(2-morpholinoethyl)-2,4-dioxo-1,3,8-triazaspiro[4.5]decan-3-yl)methyl)-1,2,4-oxadiazol-3-yl)-2-(trifluoromethyl)phenoxy)-N-isopropyl-N-methylbenzenesulfonamide]: the Emax in the experiment on SCD1 (setting [1]) stood at 95.9%; with SCD1 (setting [2]), 91.2%; with SZ95 sebocytes (setting [3]) it was 140%; in the experiment with SZ95 sebocytes (setting [4]), 134%. Also, the pEC50 is 10.24 in the experiment on SCD1 (SZ95-SCD1-HiBit cells) and ≥ 8.34 in the experiment on SZ95 sebocytes (SZ95 cells).

Regarding `O=C1N(Cc2nc(-c3ccc(Oc4ccccc4C(F)(F)F)c(C(F)(F)F)c3)no2)C(=O)C2(CCN(C3CCC3)CC2)N1CCC1CCOCC1` [Compound 12, 8-cyclobutyl-1-(2-(tetrahydro-2H-pyran-4-yl)ethyl)-3-((3-(3-(trifluoromethyl)-4-(2-(trifluoromethyl)phenoxy)phenyl)-1,2,4-oxadiazol-5-yl)methyl)-1,3,8-triazaspiro[4.5]decane-2,4-dione], the Emax amounted to 81.9% in the experiment with SCD1 (setting [1]), 77.9% in the experiment with SCD1 (setting [2]), 130% with SZ95 sebocytes (setting [3]) and 125% in the experiment on SZ95 sebocytes (setting [4]). In addition, the pEC50 is 10.09 in the experiment on SCD1 (SZ95-SCD1-HiBit cells) and ≥ 8.34 in the experiment with SZ95 sebocytes (SZ95 cells).

In the case of `O=C1N(Cc2nc(-c3ccc(Oc4ccccc4C(F)(F)F)c(C(F)(F)F)c3)no2)C(=O)C2(CCN(C3CCC3)CC2)N1CCN1CCOCC1` [Compound 13, 8-cyclobutyl-1-(2-morpholinoethyl)-3-((3-(3-(trifluoromethyl)-4-(2-(trifluoromethyl)phenoxy)phenyl)-1,2,4-oxadiazol-5-yl)methyl)-1,3,8-triazaspiro[4.5]decane-2,4-dione], the Emax was 82.2% in the experiment on SCD1 (setting [1]), 78.2% in the experiment with SCD1 (setting [2]), 94.5% in the experiment on SZ95 sebocytes (setting [3]) and 90.7% with SZ95 sebocytes (setting [4]). For the same compound, the pEC50 with SCD1 (SZ95-SCD1-HiBit cells) was 9.99; in the experiment on SZ95 sebocytes (SZ95 cells) it was ≥ 8.34.

Consider `CC(COc1ccc(-c2noc(CN3C(=O)N(CCN4CCOCC4)C4(CCN(C5CCC5)CC4)C3=O)n2)cc1C(F)(F)F)(C(F)(F)F)C(F)(F)F` [Compound 14, 8-cyclobutyl-1-(2-morpholinoethyl)-3-((3-(4-(3,3,3-trifluoro-2-methyl-2-(trifluoromethyl)propoxy)-3-(trifluoromethyl)phenyl)-1,2,4-oxadiazol-5-yl)methyl)-1,3,8-triazaspiro[4.5]decane-2,4-dione], for which the Emax in the experiment with SCD1 (setting [1]) is 91%; in the experiment with SCD1 (setting [2]) it was 86.5%; with SZ95 sebocytes (setting [3]) it was 130%; in the experiment on SZ95 sebocytes (setting [4]), 125%. Moreover, the pEC50 in the experiment with SCD1 (SZ95-SCD1-HiBit cells) was 9.62; in the experiment with SZ95 sebocytes (SZ95 cells) it was ≥ 8.34.

As to `CS(=O)(=O)c1ccccc1Oc1ccc(-c2noc(CN3C(=O)N(CCN4CCOCC4)C4(CCN(C5CCC5)CC4)C3=O)n2)cc1C(F)(F)F` [Compound 15, 8-cyclobutyl-3-((3-(4-(2-(methylsulfonyl)phenoxy)-3-(trifluoromethyl)phenyl)-1,2,4-oxadiazol-5-yl)methyl)-1-(2-morpholinoethyl)-1,3,8-triazaspiro[4.5]decane-2,4-dione], the Emax with SCD1 (setting [1]) turned out to be 88.3%; with SCD1 (setting [2]), 84%; with SZ95 sebocytes (setting [3]), 121%; in the experiment with SZ95 sebocytes (setting [4]) it was 116%. Also, the pEC50 in the experiment on SCD1 (SZ95-SCD1-HiBit cells) was 10.00; in the experiment on SZ95 sebocytes (SZ95 cells), ≥ 8.34.

In the case of `CC(C)(C)c1ccccc1Oc1ccc(-c2noc(CN3C(=O)N(CCN4CCOCC4)C4(CCN(C5CCC5)CC4)C3=O)n2)cc1C(F)(F)F` [Compound 16, 3-((3-(4-(2-(tert-butyl)phenoxy)-3-(trifluoromethyl)phenyl)-1,2,4-oxadiazol-5-yl)methyl)-8-cyclobutyl-1-(2-morpholinoethyl)-1,3,8-triazaspiro[4.5]decane-2,4-dione], the Emax is 94.8% with SCD1 (setting [1]), 90.2% in the experiment on SCD1 (setting [2]), 146% in the experiment on SZ95 sebocytes (setting [3]) and 140% in the experiment with SZ95 sebocytes (setting [4]). In addition, the values for the pEC50 in the experiment with SCD1 (SZ95-SCD1-HiBit cells) and in the experiment on SZ95 sebocytes (SZ95 cells) were 9.94 and ≥ 8.34, respectively.

With `CS(=O)(=O)c1ccccc1Oc1ccc(-c2noc(CN3C(=O)N(CCC4CCOCC4)C4(CCN(C5CCC5)CC4)C3=O)n2)cc1C(F)(F)F` [Compound 17, 8-cyclobutyl-3-((3-(4-(2-(methylsulfonyl)phenoxy)-3-(trifluoromethyl)phenyl)-1,2,4-oxadiazol-5-yl)methyl)-1-(2-(tetrahydro-2H-pyran-4-yl)ethyl)-1,3,8-triazaspiro[4.5]decane-2,4-dione], the Emax with SCD1 (setting [1]) is 200%; with SCD1 (setting [2]) it was 190%; in the experiment with SZ95 sebocytes (setting [3]) it was 102%; with SZ95 sebocytes (setting [4]), 97.4%. For the same compound, the pEC50 was 10.39 in the experiment with SCD1 (SZ95-SCD1-HiBit cells) and ≥ 8.34 with SZ95 sebocytes (SZ95 cells).

For `O=C1N(Cc2nc(-c3ccc(Oc4ccccc4S(=O)(=O)CC4CCCO4)c(C(F)(F)F)c3)no2)C(=O)C2(CCN(C3CCC3)CC2)N1CCN1CCOCC1` (stereo not drawn) [Compound 18, 8-cyclobutyl-1-(2-morpholinoethyl)-3-((3-(4-(2-(((tetrahydrofuran-2-yl)methyl)sulfonyl)phenoxy)-3-(trifluoromethyl)phenyl)-1,2,4-oxadiazol-5-yl)methyl)-1,3,8-triazaspiro[4.5]decane-2,4-dione], the Emax in the experiment with SCD1 (setting [1]) was 139%; in the experiment with SCD1 (setting [2]), 132%; in the experiment on SZ95 sebocytes (setting [3]), 141%; in the experiment on SZ95 sebocytes (setting [4]), 135%. Also, the values for the pEC50 in the experiment with SCD1 (SZ95-SCD1-HiBit cells) and with SZ95 sebocytes (SZ95 cells) were 9.88 and ≥ 8.34, respectively.
